A short description of data set [1]: Cytotoxic concentration (CC50), MTS. The format is cell-based. As to conditions: African green monkey, Vero cells. The procedure: Cytotoxic concentrations (CC50) were also studied using Vero cells. Briefly, the 10^4 cells were seeded into each well of 96-well plates. After an overnight incubation, phenolic lipids were serially diluted in DMSO to the final concentrations as follows; 25, 50, 100, 200, 300, 400, and 500 µM. Each concentration was performed in quadruplicates. DMSO at 1% was used as a mock treatment referring to 100% cell viability. Cells were incubated for 48 h before cell viability was accessed using CellTiler 96® Aqueous One Solution Cell Proliferation Assay kit (Promega, Wisconsin, USA). Non-linear regression analysis was used to determine cytotoxic concentrations (CC50) of each experiment.

In data set [2] the test system is ZIKV (sv0010/15). The experiment in a line: Efficacy (EC50) in infected Vero cells. The format is cell-based, Zika virus.
The test system of data set [3] is dengue virus serotype 1–4. Nature of the data set: Pan-dengue inhibition (EC50s over serotypes). Format: cell-based. As to conditions: DENV1, read-out: EC50s, pan-dengue inhibition.
For data set [4], the system named is DENV2. The experiment in a line: Fusion inhibition study in C6/36 cells. The format is cell-based, Dengue virus. Particulars: 10 µM, C6/36, M.O.I. of 1, 48 h, MES. The procedure: (§1) Fusion inhibition study[25]–[27] of DENV and ZIKV were used to confirm the findings. Briefly, cardol triene at 10 µM was added to DENV2 or ZIKV (Fig. 6C-D) infected C6/36 cells at the M.O.I. of 1 for 48 h before inducing acidic condition by MES. The 4G2 antibody was used as a positive control inhibiting both DENV2 and ZIKV fusion. […] Therefore, we concluded that one of the targets of cardol triene, and other CNSL-derived phenolic lipids, was the kl loops of DENV E protein, thus preventing the conformational change of DENV dimer to trimer that was required to initiate pH-dependent fusion.
(§2) C6/36 (2 × 10^5) cells were seeded into 24-well plates before infection with DENV2 and ZIKV (M.O.I. of 1) as described. Cardol triene at 10 µM were introduced to the DENV2 and ZIKV infected cells during and after infection. […] Cells were incubate at 28 °C for 2 days before addition of 0.5 M 2-(N-morpholino) ethanesulfonic acid (MES) (pH 5.0) (Sigma Aldrich, St Louis, USA). Moreover, cells from selected wells subsequently underwent DAPI staining. Cell-cell fusion was observed under brightfield and fluorescence using an Eclipse TS100 Inverted Routine Microscope (Nikon, New York, USA).

Data set [5] concerns ZIKV. The experiment in a line: Fusion inhibition study in C6/36 cells. The format is cell-based, Zika virus. As to conditions: 10 µM, C6/36, M.O.I. of 1, 48 h, MES. The procedure:
as §1, §2

Data set [6] relates to BHK-21/DENV2 replicon cells. Nature of the data set: Replicon inhibition study, RT-qPCR of DENV2 NS1. The format is cell-based, Dengue virus. As to conditions: 72 h. The procedure: (§3) We analyzed the replication inhibition using BHK-21/DENV2 replicon cells stably expressed the non-structural proteins. Cardol triene at 10 µM and 20 µM were added to the replicon cells for 72 h and the replication inhibition was accessed by RT-qPCR of DENV2 NS1. Ribavirin, a known inhibitor of flaviviral replication, was used as a positive inhibition control. […] Replicon cell viability under cardol triene treatment was also analyzed using an MTS assay. […] Therefore, we concluded that cardol triene inhibited DENV RNA replicon replication, potentially in dose-dependent manner.
BHK-21 (5 × 10^4) cells expressing DENV-2 replicon (BHK-21/DENV2)[44] were seeded as previously described. Cardol triene at 10 µM and 20 µM, DMSO, and ribavirin (TargetMol, USA) were added to the replicon cells and incubated at 37 °C for 3 days. Cells lysates were collected and viral RNA was quantified by RT-qPCR as previously described. Data were reported as percent inhibition compared with ribavirin. Three biological replicates were performed and results were means and SEM of all replicates.
For orientation: Replicon systems follow genome replication, usually without infectious particles.

Data set [7] has as its system BHK-21/DENV2 replicon cells. The experiment in a line: Replicon cell viability, MTS assay. Format: cell-based. As to conditions: 10 µM and 20 µM, 72 h. The procedure:
as §3
Figure 7 Replicon inhibition study. (A) DENV2/BHK-21 replicon (5 × 10^4 cells) were treated with cardol triene or ribavirin for 72 h. Percent inhibition was calculated from RT-qPCR of cell lysate. (B) Percent DENV2/BHK-21 replicon cell viability at 72 h under 10 and 20 µM cardol triene. Error bars represented standard error of means (SEM) from three independent experiments.

In data set [8] the test system is normal human lung fibroblast cell line, GM07492A. On the set-up: method as in PMID 27934289. Particulars: read-out: cytotoxicity value (CC50); cited from earlier work.

`C=CC/C=C/C/C=C/CCCCCCCc1cc(O)cc(O)c1` [Cardol triene, 5-[8(Z), 11(Z), 14-pentadecatrienyl]resorcinol] gave a CC50 at 48 h in data set [1] of 207 ± 5.24 µM. In addition, the Zika virus inhibition result in data set [2] is “did not inhibit”. In data set [3], the EC50 was in the range of 5.35 to 8.89 µM. Also, the “DENV2 pH-dependent cell fusion” value in data set [4] is reported as “exclusively inhibited dengue fusion”. The “ZIKV pH-dependent cell fusion” value in data set [5] is “ZIKV-induced fused cells and nuclei were present”. In addition, the “DENV2 RNA inhibition” value is reported as 76.60 ± 7.59% in data set [6] (10 µM) and 89.44 ± 4.02% in data set [6] (20 µM). For the same compound, the replicon cell viability entry in data set [7] was “did not have effect on cell viability”. For the same compound, in data set [8], the CC50 is 193 ± 6 µM.

Usually CC50 stands for the concentration giving 50% cytotoxicity.

Source of the values: article PMC6226472, “Cardol triene inhibits dengue infectivity by targeting kl loops and preventing envelope fusion” (Scientific Reports, 2018).
